Results on 18 compounds are retold here after US7750012B2, “Biaryl nitrogen-heterocycle inhibitors of LTA4H for treating inflammation” (deCODE genetics ehf, priority 2005, dated 2010).

Assay [1] deals with T1, purified recombinant human LTA4 hydrolase (hLTA4H) (Homo sapiens, UniProt P09960).
T1 construct: A human LTA4 hydrolase full-length cDNA clone (NM_000895) was purchased from OriGene Technologies; own knowledge: pDEST17 adds an N-terminal 6xHis; made in house; host or cells: Escherichia coli BL21-AI
T1 sequence (P09960 1-611): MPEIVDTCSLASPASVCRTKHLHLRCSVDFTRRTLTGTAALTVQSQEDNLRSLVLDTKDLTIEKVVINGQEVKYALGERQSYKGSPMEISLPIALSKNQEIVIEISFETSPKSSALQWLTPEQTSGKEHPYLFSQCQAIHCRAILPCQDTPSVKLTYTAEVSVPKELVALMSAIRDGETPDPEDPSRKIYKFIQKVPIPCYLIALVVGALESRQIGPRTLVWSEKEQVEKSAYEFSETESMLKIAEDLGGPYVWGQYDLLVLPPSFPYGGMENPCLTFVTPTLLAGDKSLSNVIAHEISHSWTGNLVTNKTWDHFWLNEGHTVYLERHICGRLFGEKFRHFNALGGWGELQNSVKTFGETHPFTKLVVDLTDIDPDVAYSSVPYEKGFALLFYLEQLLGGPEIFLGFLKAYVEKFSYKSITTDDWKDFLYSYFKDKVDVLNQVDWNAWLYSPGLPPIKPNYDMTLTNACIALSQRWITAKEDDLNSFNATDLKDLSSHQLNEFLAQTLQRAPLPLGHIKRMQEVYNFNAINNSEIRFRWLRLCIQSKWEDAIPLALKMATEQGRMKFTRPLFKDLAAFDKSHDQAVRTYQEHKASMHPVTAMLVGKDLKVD
The experiment in a line: In vitro assay testing inhibitory activity against purified recombinant human LTA4 hydrolase. It is filed as biochemical. The note with it: 200 nM recombinant enzyme, 2 μM LTA4, LTB4 measured by LC-MS/MS. The source says:
(1) In Vitro Assay Testing Inhibitory Activity Against Purified Recombinant Human LTA4 Hydroase:
The gene was amplified by polmerase chain reaction and transferred via pDONR201 into the bacterial expression vector pDEST17 by recombination (both plasmids from Invitrogen, Carlsbad, Calif.). The resulting construct was transformed into Escherichia coli BL21-AI (Invitrogen), and expression was induced by chemical induction with arabinose. The recombinant enzyme was purified by chromatography on a FPLC system (Amersham Biosciences, Uppsala, Sweden) using immobilized metal affinity chromatography (Ni-NTA Superflow, Qiagen, Hilden, Germany) and anion exchange chromatography (MonoQ HR 10/10, Amersham Biosciences).
The compounds of the invention were incubated in a series of dilutions with 200 nM of recombinant enzyme in assay buffer (100 mM Tris-HCl, 100 mM NaCl, 5 mg/ml fatty-acid free BSA, 10% DMSO, pH 8.0) for 10 min at room temperature to allow binding between LTA4 hydrolase and the inhibitors. LTA4 was prepared by alkaline hydrolysis of LTA4 methyl ester (Biomol, Plymouth Meeting, Pa., or Cayman Chemicals, Ann Arbor, Mich.). A solution of 10 μg of the ester was dried under a nitrogen stream and redissolved in 60 μl of a solution of 80% aceton and 20% 0.25 M NaOH.
After incubation for 40 min at room temperature the resulting approximately 500 μM tock of LTA4 was kept at −80° C. for no more than a few days prior to use.
Immediately before the assay, LTA4 was diluted to a concentration of 10 μM in assay buffer (without DMSO) and added to the reaction mixture to a final concentration of 2 μM to initiate the enzyme reaction. […] The samples were then kept at 4° C. over night to complete protein precipitation and centrifuged for 15 min at 1800 g. LTB4 formed was measured by LC-MS/MS using LTB4-d4 as an internal standard and an external LTB4 standard (Biomol) as reference.

In assay [2] the test system is ionophore-induced LTB4 production. To be noted: oral administration; cited from earlier work.
For assay [3] the test system is unchanged. To be noted: oral administration; cited from earlier work. The source holds these as a separate data set.
A further assay relates to colitis symptoms. The note with it: eight weeks of treatment, spontaneous colitis; cited from earlier work.

Structures can show the parent of a compound that is named as a salt. Where only a bound is given, the exact number is not on record here.

On to `O=C(O)CCCN1CCN(c2ccc(Oc3ccc(I)cc3)cc2)CC1` [Example 15, 4-{4-[4-(4-Iodo-phenoxy)-phenyl]-piperazin-1-yl]-butyric acid sodium salt], for which the concentration for half-maximal inhibition (IC50) in assay [1] is less than 5 µM.

As for `Clc1ccc(-c2ccc(Oc3ccc(N4CCNCC4)cc3)cc2)s1` [Example 26, hydrochloride], the IC50 in assay [1] is 5 to 20 µM.

On to `CC(=O)N1CCN(c2ccc(Oc3ccccc3)cc2)CC1` [Example 21, 1-[4-(4-Phenoxy-phenyl)-piperazin-1-yl]-ethanone], for which the half-maximal inhibitory concentration (IC50) in assay [1] was less than 5 µM.

For the compound `Cc1ccc(Oc2ccc(N3CCNCC3)cc2)cc1` [Example 18, 1-(4-p-Tolyloxy-phenyl]-piperazine], the IC50 in assay [1] is less than 5 µM.

For `O=C(O)CCCN1CCN(c2ccc(Cc3ccccc3)cc2)CC1` [Example 6, 4-[4-(4-Benzyl-phenyl)-piperazin-1-yl]-butyric acid sodium salt], in assay [1], the IC50 was less than 5 µM.

With `COc1ccc(Oc2ccc(N3CCNCC3)cc2)cc1` [Example 17, 1-[4-(4-Methoxy-phenoxy)-phenyl]-piperazine], the 50% inhibitory concentration (IC50) in assay [1] was 5 to 20 µM.

For `c1ccc(Cc2ccc(N3CCNCC3)cc2)cc1` [Example 4, 1-(4-Benzyl-phenyl)-piperazine hydrochloride], in assay [1], the IC50 is less than 5 µM.

With `O=C(O)CCN1CCN(c2ccc(Oc3ccc(-c4ccsc4)cc3)cc2)CC1` [Example 16, 3-{4[4-(4-Thiophen-3-yl-phenoxy)-phenyl]-piperazin-1-yl}-propionic acid sodium salt], the half-inhibitory concentration (IC50) in assay [1] is less than 5 µM.

As for `CN(CCCOc1ccc(Cc2ccccc2)cc1)CCC(=O)O.Cl` [SC57461], the “inhibition of ionophore-induced LTB4 production in mouse blood ex vivo” value in assay [2] is listed as “inhibition of ionophore-induced LTB4 production”. For the same compound, the “inhibition of ionophore-induced LTB4 production in rat peritoneum in vivo” value in assay [3] is given as “inhibition of ionophore-induced LTB4 production”. Also, the “colitis symptoms in a primate model” value in the assay with colitis symptoms is given as “significantly improved colitis symptoms”.

On to `Ic1ccc(Oc2ccc(N3CCOCC3)cc2)cc1` [Example 24, 4-[4-(4-Iodo-phenoxy)-phenyl]-morpholine], for which the IC50 in assay [1] was less than 5 µM.

On to `O=C(O)CCN1CCN(c2ccc(Cc3ccccc3)cc2)CC1` [Example 7, 3-[4-(4-Benzyl-phenyl)-piperazin-1-yl]-propionic acid sodium salt], for which the IC50 in assay [1] is less than 5 µM.

Take `COC(=O)CCCN1CCN(c2ccc(Cc3ccccc3)cc2)CC1` [Example 5, 4-[4-(4-Benzyl-phenyl)-piperazin-1-yl]-butyric acid methyl ester]: the IC50 in assay [1] is less than 5 µM.

For the compound `NC1CCN(c2ccc(Oc3ccccc3)cc2)CC1` [Example 12, 1-(4-Phenoxy-phenyl)-piperidin-4-ylamine hydrochloride], in assay [1], the IC50 fell in the range of 5 to 20 µM.

With `FC(F)(F)c1ccc(Oc2ccc(N3CCNCC3)cc2)cc1` [Example 20, 1-[4-(4-Trifluoromethyl-phenoxy)-phenyl]-piperazine], the half-maximal inhibitory concentration (IC50) in assay [1] is less than 5 µM.

Consider `Ic1ccc(Oc2ccc(N3CCNCC3)cc2)cc1` [Example 14, 1-[4-(4-Iodo-phenoxy)-phenyl]-piperazine hydrochloride], for which the IC50 in assay [1] was less than 5 µM.

Regarding `c1cc(-c2ccc(Oc3ccc(N4CCNCC4)cc3)cc2)cs1` [Example 23, 1-[4-(4-Thiophen-3yl-phenoxy)-phenyl]-piperazine hydrochloride], the half-maximal inhibitory concentration (IC50) in assay [1] is less than 5 µM.

Regarding `c1cc(-c2ccc(Oc3ccc(N4CCOCC4)cc3)cc2)cs1` [Example 25, 4-[4-(4-Thiophen-3-yl-phenoxy)-phenyl]-morpholine], in assay [1], the half-maximal inhibitory concentration (IC50) was less than 5 µM.

For the compound `O=C(O)CCCN1CCN(c2ccc(Nc3ccccc3)cc2)CC1` [Example 3, 4-[4-(4-phenylamino-phenyl)-piperazin-1-yl]-butyric acid sodium salt], in assay [1], the IC50 was in the range of 5 to 20 µM.

A word on the IC50: it is the concentration that inhibits the measured activity by half.
